# From PubChem BioAssay (NCI)
#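 Briefly, cells in 96-well plates were exposed to five compound concentrations for 48 h, and endpoints were estimated by linear interpolation. GI50 marks 50% less growth. TGI marks complete inhibition of growth.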
# Tests used:
# Test in all cases: growth of human tumour cells (NCI), 48 h
# U251 CNS = tested on: U251 CNS
# SK-MEL-2 melanoma = tested on: SK-MEL-2 melanoma
# A549 NSCLC = tested on: A549 NSCLC
# ACHN renal = tested on: ACHN renal
# SW-620 colon = tested on: SW-620 colon
# IGROV1 ovarian = tested on: IGROV1 ovarian
# T-47D breast = tested on: T-47D breast
# HCT-15 colon = tested on: HCT-15 colon
# MCF7 breast = tested on: MCF7 breast
# KM12 colon = tested on: KM12 colon
# M14 melanoma = tested on: M14 melanoma
# SN12C renal = tested on: SN12C renal
# 786-0 renal = tested on: 786-0 renal
# A498 renal = tested on: A498 renal
# NCI/ADR-RES ovarian = tested on: NCI/ADR-RES ovarian
# UO-31 renal = tested on: UO-31 renal
# NCI-H226 lung = tested on: NCI-H226 lung
# DU-145 prostate = tested on: DU-145 prostate
# BT-549 breast = tested on: BT-549 breast
# EKVX NSCLC = tested on: EKVX NSCLC
# PC-3 prostate = tested on: PC-3 prostate
# MDA-MB-435 = tested on: MDA-MB-435
# SNB-19 CNS = tested on: SNB-19 CNS
# CCRF-CEM leukemia = tested on: CCRF-CEM leukemia
# HS 578T breast = tested on: HS 578T breast
# TK-10 renal = tested on: TK-10 renal
# MDA-MB-231 breast = tested on: MDA-MB-231 breast
# HCT-116 colon = tested on: HCT-116 colon
# NCI-H460 lung = tested on: NCI-H460 lung
# SF-539 CNS = tested on: SF-539 CNS
# RXF 393 renal = tested on: RXF 393 renal
# HOP-92 NSCLC = tested on: HOP-92 NSCLC
# SNB-75 CNS = tested on: SNB-75 CNS
# HOP-62 NSCLC = tested on: HOP-62 NSCLC
# HCC-2998 colon = tested on: HCC-2998 colon
# SR leukemia = tested on: SR leukemia
# MOLT-4 leukemia = tested on: MOLT-4 leukemia
# SF-295 CNS = tested on: SF-295 CNS
# K-562 leukemia = tested on: K-562 leukemia
# OVCAR-3 ovarian = tested on: OVCAR-3 ovarian
# SF-268 CNS = tested on: SF-268 CNS
smiles,measurement,setting,value
COc1ccc(-c2csc(NC(=O)N3CCN(c4cc5c(cc4F)c(=O)c(C(=O)O)cn5C4CC4)CC3)n2)cc1,GI50,U251 CNS,0.66 µM
same,TGI,U251 CNS,16.8 µM
same,GI50,SK-MEL-2 melanoma,2.42 µM
same,TGI,SK-MEL-2 melanoma,7.1 µM
same,GI50,A549 NSCLC,3.43 µM
same,TGI,A549 NSCLC,> 100 µM
same,GI50,ACHN renal,2.66 µM
same,TGI,ACHN renal,> 100 µM
same,GI50,SW-620 colon,5.04 µM
same,TGI,SW-620 colon,> 100 µM
same,GI50,IGROV1 ovarian,2.36 µM
same,TGI,IGROV1 ovarian,> 100 µM
same,GI50,T-47D breast,1.57 µM
same,TGI,T-47D breast,> 100 µM
same,GI50,HCT-15 colon,2.86 µM
same,TGI,HCT-15 colon,> 100 µM
same,GI50,MCF7 breast,2.6 µM
same,TGI,MCF7 breast,> 100 µM
same,GI50,KM12 colon,1.63 µM
same,TGI,KM12 colon,> 100 µM
same,GI50,M14 melanoma,2.31 µM
same,TGI,M14 melanoma,> 100 µM
same,GI50,SN12C renal,1.49 µM
same,TGI,SN12C renal,> 100 µM
same,GI50,786-0 renal,1.46 µM
same,TGI,786-0 renal,19.6 µM
same,GI50,A498 renal,2.59 µM
same,TGI,A498 renal,15.6 µM
same,GI50,NCI/ADR-RES ovarian,5.87 µM
same,TGI,NCI/ADR-RES ovarian,> 100 µM
same,GI50,UO-31 renal,1.62 µM
same,TGI,UO-31 renal,> 100 µM
same,GI50,NCI-H226 lung,2.95 µM
same,TGI,NCI-H226 lung,> 100 µM
same,GI50,DU-145 prostate,1.72 µM
same,TGI,DU-145 prostate,> 100 µM
same,GI50,BT-549 breast,0.616 µM
same,TGI,BT-549 breast,6.64 µM
same,GI50,EKVX NSCLC,3.11 µM
same,TGI,EKVX NSCLC,> 100 µM
same,GI50,PC-3 prostate,2.98 µM
same,TGI,PC-3 prostate,> 100 µM
same,GI50,MDA-MB-435,2.54 µM
same,TGI,MDA-MB-435,> 100 µM
same,GI50,SNB-19 CNS,3.29 µM
same,TGI,SNB-19 CNS,> 100 µM
same,GI50,CCRF-CEM leukemia,1.43 µM
same,TGI,CCRF-CEM leukemia,13.1 µM
same,GI50,HS 578T breast,2.94 µM
same,TGI,HS 578T breast,> 100 µM
same,GI50,TK-10 renal,6.93 µM
same,TGI,TK-10 renal,37 µM
same,GI50,MDA-MB-231 breast,2.71 µM
same,TGI,MDA-MB-231 breast,> 100 µM
same,GI50,HCT-116 colon,1.72 µM
same,TGI,HCT-116 colon,> 100 µM
same,GI50,NCI-H460 lung,1.29 µM
same,TGI,NCI-H460 lung,> 100 µM
same,GI50,SF-539 CNS,1.8 µM
same,TGI,SF-539 CNS,> 100 µM
same,GI50,RXF 393 renal,3.03 µM
same,TGI,RXF 393 renal,23.4 µM
same,GI50,HOP-92 NSCLC,1.6 µM
same,TGI,HOP-92 NSCLC,6.56 µM
same,GI50,SNB-75 CNS,2.47 µM
same,TGI,SNB-75 CNS,17.4 µM
same,GI50,HOP-62 NSCLC,3.02 µM
same,TGI,HOP-62 NSCLC,32.6 µM
same,GI50,HCC-2998 colon,3.83 µM
same,TGI,HCC-2998 colon,> 100 µM
same,GI50,SR leukemia,1.93 µM
same,TGI,SR leukemia,13 µM
same,GI50,MOLT-4 leukemia,2.54 µM
same,TGI,MOLT-4 leukemia,9.42 µM
same,GI50,SF-295 CNS,2.25 µM
same,TGI,SF-295 CNS,8.79 µM
same,GI50,K-562 leukemia,2.71 µM
same,TGI,K-562 leukemia,14.9 µM
same,GI50,OVCAR-3 ovarian,0.89 µM
same,TGI,OVCAR-3 ovarian,17.9 µM
same,GI50,SF-268 CNS,1.23 µM
same,TGI,SF-268 CNS,> 100 µM
